Earlier results as cited in patent publication US20050009793A1, “Treatment of liver disease with active vitamin D compounds” (Novacea, Inc., priority 2002, published 2005).

Details: in vivo

Hypercalcemic effect compared to calcitriol	Structure (SMILES)
reduced hypercalcemic effect	C=C1/C(=C\C=C2/CCC[C@]3(C)C([C@H](C)CC#CC(C)(C)O)=CC[C@@H]23)C[C@@H](O)C[C@@H]1O [Ro23-7553]
reduced hypercalcemic effect	C=C1/C(=C/C=C2\CCC[C@]3(C)C([C@H](C)CC#CC(O)(C(F)(F)F)C(F)(F)F)=CC[C@@H]23)C[C@@H](O)C[C@@H]1O [Ro24-5531]
